Results published in US12697366B2, “Thermogenic compositions and methods” (Ohio State Innovation Foundation, priority 2016, dated 2026).

Key:
STZ mice = test: AAC2, INS and AAC2-INS treatment of STZ mice (streptozotocin-induced type 1 diabetes); conditions: mouse, in vivo
Procedure: The untreated STZ mice died 32 days after STZ induction of experimental type 1 diabetes. […] Liver toxicity was measured by plasma levels of liver enzyme aspartate aminotransferase (AST).
Human INS was used for treatment to distinguish from endogenous mouse INS. […] Insulin tolerance test (ITT) was used to assess insulin sensitivity. […] Glucose tolerance test (GTT) was used to assess glucose tolerance.
[…] SLC6A6 is a principal transporter for neurotransmitter and osmolyte taurine, in all treated STZ mice. […] MVK a key kinase in cholesterol synthesis pathway. […] GPX6 a key antioxidant enzyme induced in the liver in response to oxidative stress.
Cognitive performance was measured using Barnes maze behavioral test to measure spatial learning (escape latency (60B) and number of errors (60C)) and memory (60D).

DIO mice = test: Study 3 (Example 2): EREG injected into epididymal iAb fat of DIO mice; assay type: in vivo, mouse
Procedure: 6-week old C57BL6/J male mice (WT) were fed a high fat diet (HF, 45% kcal from fat, D12451, Research Diet Inc., New Brunswick, NJ) for 30 days. Then mice were randomly assigned for • 1) a control group injected with 0.1 mL sterile phosphate buffered saline (PBS) into both epididymal iAb fat (n=7), and • 2) EREG-treated group injected with 20 ng EREG per epididymal iAb fat depot (n=7). Mice were injected with 0.1 mL sterile PBS, containing 200 ng EREG/mL. Mice were individually housed and pair fed when injection started. Mice were injected every other day for 2 weeks. Metabolic measurements were performed as described in 2.5. WAT were collected for protein, mRNA, and histology. Metabolic parameters in study 2.3 and 2.4 were measured by indirect calorimetry (CLAMS, Columbus Instruments, Columbus, OH) at ambient temperature (22° C.) with 12 h light/dark cycles. Animals were fed the same HF diet and water provided ad libitum. Mice were placed individually and allowed to acclimatize in the chambers for 12 h, and O2 consumption, CO2 production, energy expenditure, and locomotor activity were measured for 24 h. Then temperature was changed to 4° C. for 6 h. […] NanoString's nCounter analysis system performed direct detection of target molecules from a single sample using color-coded molecular barcodes, giving a digital quantification of the number of target molecules. A custom panel containing Ereg, thermogenic genes, and PPARα-target genes was designed and used for simultaneous quantification of 37 genes including housekeeping genes. All data were normalized to 3 housekeeping genes Gapdh, Pgk1, and Tubb quantified in the same samples using nSolver Software. Total mRNA (100 ng in 5 μl) was hybridized overnight with nCounter Reporter (20 μl) probes in hybridization buffer and in an excess of nCounter Capture probes (5 μL) at 65° C. for 16-20 h. The hybridization mixture containing target/probe complexes was allowed to bind to magnetic beads containing complementary sequences on the Capture Probe. After each target found a probe pair, excess probes were washed followed by sequential binding to sequences on the Reporter Probe. Biotinylated capture probe-bound samples were immobilized and recovered on a streptavidin-coated cartridge. The abundance of specific target molecules was then quantified using the nCounter Digital Analyzer. Individual fluorescent barcodes and target molecules present in each sample were recorded with a CCD camera by performing a high-density scan (600 fields of view). Images were processed internally into a digital format and were normalized using the NanoString nSolver software analysis tool. Counts were normalized for all target RNAs in all samples based on the positive control RNA to account for differences in hybridization efficiency and post-hybridization processing, purification, and immobilization of complexes. The average was normalized by background counts (the average of the eight negative control counts) for each sample. Subsequently, a normalization of mRNA content was performed based on Gapdh, Pgk1, and Tubb internal reference housekeeping genes. Plasma FFA and TG were measured in plasma samples from study 3, using kits from Wako Diagnostics (Mountain View, CA). Plasma samples were collected from mice in Study 3 and analyzed using a mouse leptin ELISA Kit (Alpco, Salem, NH) according to manufacturer's instruction. The absorbance (450 nm) was measured using Synergy H1 Hybrid Multi-Mode Microplate Reader. Insulin levels were measured in plasma from mice in Study 4 using an ultra-sensitive mouse insulin ELISA kit (Crystal Chem, Downers Grove, IL) according to manufacturer's instruction.

[1] = system: iAb (omental) fat explants; test: LEP release from iAb (omental) fat explants of an obese patient (ELISA); assay type: cell-based, human; conditions: different EREG concentrations, 2 h
Procedure: FIGS. 14A to 14N show EREG induces expression of thermogenic and PPARα-target genes, suppresses inflammatory genes, and stimulates leptin secretion. FIGS. 14A to 14H and 14L: Markers for thermogenesis, adipogenesis, and inflammatory genes were analyzed using homogenates from whole iAb fat pads isolated from Veh- (white bars) and EREG-treated (black bars) DIO mice (Study 3). Gene expression was quantified using a customized NanoString panel. Data represent mean±SD, n.s.,—non-significant. FIG. 14I: LEP was measured in plasma in the same mice by ELISA. Data (mean±SD) are shown as percent to control (Veh, 100%) and is indicated as a dashed line. FIG. 14J: LEP release after stimulation with different concentrations of recombinant human EREGs was measured in explants of iAb (omental) tissue obtained from an obese insulin resistant patient. FIG. 14K: LEP release after stimulation of explants from same donor with and without EREG (50 ng/mL) in the presence and absence of insulin (Ins, 10 μg/mL), MAPK-I, EGFR-I, PI3K-I. Inhibitors concentrations were described in FIG. 1. FIG. 14M: LEP release after stimulation of iAb fat explants (2 h) from WT mice with different concentrations of recombinant mouse EREG. Experiment was repeated in three different WT mice. Data (mean±SD) are shown as percent to control (Veh, 100%). FIG. 14N: LEP release following stimulation of iAb fat explants (2 h) from WT mice with inhibitors of EGFR (10 μM) and MAPK (10 μM) in the presence or absence of EREG (50 ng/ml). Data (mean±SD) are shown as percent to control (Veh, 100%).
Abdominal fat tissue obtained from an obese patient was excised into 35 mg sections for stimulation with EREG. Explants were stimulated with EREG in DMEM containing 1% FBS for 2 h. Media was collected after 2 h, lyophilized and reconstituted in 120 μL deionized water for leptin detection using ELISA kit (Alpco, Salem, NH).

## insulin: insulin (bovine or human)
STZ mice
  expression of Glutathone peroxidase (GPX6): significantly increased
  expression of insulin 1 gene (Ins1) in the brain: detrimental suppression

## EREG: Epiregulin, member of the epidermal growth factor family; recombinant mouse or human protein
DIO mice; CLAMS
  metabolic rate at ambient temperature and after cold exposure: increase
DIO mice; EREG 20 ng per depot every other day, 2 weeks, infrared camera
  body temperature in the abdominal area: profound effects
DIO mice; HF diet
  weight gain: prevented
DIO mice; NanoString
  expression of PPARα target genes Mcat and Cpt2 in iAb fat: increased
  expression of pro-inflammatory genes Tnfa and Mcp1 in iAb fat: suppressed
  expression of thermogenic genes (Dio2, Pgc1a, Cidea, Rip140) and CoxIV in iAb fat: significantly increased
DIO mice; before and after cold exposure
  light and dark period activity: did not influence
DIO mice; between groups
  Lep expression in iAb fat: similar
  levels of BAT marker Prdm16 in iAb fat: similar
DIO mice; both groups
  food consumption: similar
DIO mice; compared to control group
  decrease of circulating triglyceride levels: 48%
DIO mice; mouse, in vivo
  increase in Ucp1 and Pparg expression in iAb fat: did not reach statistical significance
  less iAb fat than non-treated mice: 32%
DIO mice; normalized to body weight
  liver, BAT and subcutaneous WAT weight: did not influence
DIO mice; plasma, ELISA
  levels of secreted LEP, higher than in non-treated mice: 215%
DIO mice; treated vs non-treated
  RER: similar
DIO mice; vs control group
  increase in non-esterified fatty acid in the circulation: 580%
  time to maximal metabolic rate plateau during cold exposure: significantly shorter
[1]
  release of LEP from iAb fat explants: dose dependent release
